Source: patent US12180187B2, “1-phenyl-5-azinylpyrazolyl-3-oxyalkyl acids and their use for controlling unwanted plant growth” (BAYER AKTIENGESELLSCHAFT, priority 2019, dated 2024)

Experiments:
ECHCG = assay: Pre-emergence action against ECHCG, 1280 g/ha; type: in vivo, Echinochloa crus-galli; conditions: visual scoring after about 3 weeks vs untreated controls, 100% = plants have died, 0% = like control plants
Procedure, shortened: (§1)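 Visual percent-effect ratings (0% = like control, 100% = plants dead) were taken about 3 weeks after pre-emergence soil-surface application of WP/EC aqueous formulations with 0.5% additive, 600 L water/ha. Seeds were sown in sandy loam and grown in the greenhouse.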

POAAN [1] = assay: Pre-emergence action against POAAN, 1280 g/ha; type: in vivo, Poa annua; conditions: visual scoring after about 3 weeks vs untreated controls, 100% = plants have died, 0% = like control plants
Procedure, shortened: as §1

SETVI [2] = assay: Pre-emergence action against SETVI, 1280 g/ha; type: in vivo, Setaria viridis; conditions: visual scoring after about 3 weeks vs untreated controls, 100% = plants have died, 0% = like control plants
Procedure, shortened: as §1

AMARE [3] = assay: Pre-emergence action against AMARE, 1280 g/ha; type: in vivo, Amaranthus retroflexus; conditions: scored visually after about 3 weeks vs untreated controls (100% = plants have died)
Procedure, shortened: as §1

MATIN [4] = assay: Pre-emergence action against MATIN, 1280 g/ha; type: in vivo, Tripleurospermum inodorum (Matricaria inodora); conditions: scored visually after about 3 weeks vs untreated controls (100% = plants have died)
Procedure, shortened: as §1

STEME = assay: Pre-emergence action against STEME, 1280 g/ha; type: in vivo, Stellaria media; conditions: scored visually after about 3 weeks vs untreated controls (100% = plants have died)
Procedure, shortened: as §1

ALOMY = assay: Pre-emergence action at 320 g/ha against ALOMY; type: in vivo, Alopecurus myosuroides; conditions: scored visually after about 3 weeks vs untreated controls (100% = plants have died)
Procedure, shortened: (§2)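 Sow seeds, cover with soil, spray soil surface (WP/EC, 0.5% additive, 600 l/ha water), hold in greenhouse ~3 wk, then rate % activity visually against untreated controls.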

AVEFA = assay: Pre-emergence action at 320 g/ha against AVEFA; type: in vivo; conditions: visual scoring after about 3 weeks vs untreated controls
Procedure, shortened: as §2

DIGSA = assay: Pre-emergence action at 320 g/ha against DIGSA; type: in vivo, Digitaria sanguinalis; conditions: visual scoring after about 3 weeks vs untreated controls
Procedure, shortened: as §2

SETVI [5] = assay: Pre-emergence action at 320 g/ha against SETVI; type: in vivo, Setaria viridis; conditions: visual scoring after about 3 weeks vs untreated controls
Procedure, shortened: as §2

AMARE [6] = assay: Pre-emergence action at 320 g/ha against AMARE; type: in vivo, Amaranthus retroflexus; conditions: visual scoring after about 3 weeks vs untreated controls
Procedure, shortened: as §2

MATIN [7] = assay: Pre-emergence action at 320 g/ha against MATIN; type: in vivo, Tripleurospermum inodorum (Matricaria inodora); conditions: visual scoring after about 3 weeks vs untreated controls
Procedure, shortened: as §2

POLCO = assay: Pre-emergence action at 320 g/ha against POLCO; type: in vivo, Fallopia convolvulus (Polygonum convolvulus); conditions: visual scoring after about 3 weeks vs untreated controls
Procedure, shortened: as §2

POAAN [8] = assay: Post-emergence action against POAAN, 1.28 kg/ha; type: in vivo, Poa annua; conditions: dosage 1280 g/ha, visual rating about 3 weeks after treatment vs untreated controls
Procedure, shortened: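 Activity scored visually roughly 3 weeks after treatment against untreated plants (0% = as control, 100% = dead). Plants grown in sandy loam in greenhouse, treated at one-leaf stage, 2–3 weeks post-sowing, with WP/EC spray containing 0.5% additive at 600 l/ha.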

[9] = Tripleurospermum inodorum, 504 h

| SMILES | Pre-emergence action against ECHCG (ECHCG) [%] | Pre-emergence action against POAAN (POAAN [1]) [%] | Pre-emergence action against SETVI (SETVI [2]) [%] | Pre-emergence action against AMARE (AMARE [3]) [%] | Pre-emergence action against MATIN (MATIN [4]) [%] | Pre-emergence action against STEME (STEME) [%] | Pre-emergence action at 320 g/ha against ALOMY in % (ALOMY) [%] | Pre-emergence action against AVEFA in % (AVEFA) [%] | Pre-emergence action against DIGSA in % (DIGSA) [%] | Pre-emergence action against SETVI in % (SETVI [5]) [%] | Pre-emergence action against AMARE in % (AMARE [6]) [%] | Pre-emergence action against MATIN in % (MATIN [7]) [%] | Pre-emergence action against POLCO in % (POLCO) [%] | Post-emergence action against POAAN (POAAN [8]) [%] | also measured |
| --- | --- | --- | --- | --- | --- | --- | --- | --- | --- | --- | --- | --- | --- | --- | --- |
| O=C(COc1nn(-c2ccccc2F)c(-c2ccc(F)nc2)c1Br)OCC1OCCO1 [VII-103] | 100 | 100 | 100 | 100 | 100 | 100 | 100 | 90 | 100 | 100 | 100 | 90 | 100 | 100 | – |
| COC(=O)[C@H](C)Oc1nn(-c2cc(F)ccc2F)c(-c2ccc(F)nc2)c1Br [VII-107] | 90 | 100 | 100 | 100 | 90 | 100 | 80 | 90 | 100 | 100 | 100 | 90 | 100 | 100 | – |
| COC(=O)CCOC(=O)COc1nn(-c2ccccc2F)c(-c2ccc(F)nc2)c1Br [VII-111] | 100 | 100 | 100 | 100 | 100 | 100 | 100 | 90 | 100 | 100 | 100 | 90 | 90 | 100 | – |
| CCOC(=O)COc1nn(-c2ccccc2F)c(-c2ccc(F)nc2)c1C [VII-117] | 100 | 100 | 100 | 100 | 100 | 90 | 100 | 100 | 100 | 100 | 100 | 90 | 100 | 100 | – |
| COC(=O)[C@@H](C)Oc1nn(-c2cc(F)ccc2F)c(-c2cncc(F)c2)c1Br [VII-132] | 100 | 100 | 100 | 100 | 100 | 100 | 100 | 100 | 100 | 100 | 100 | 90 | 100 | 100 | – |
| COC(=O)[C@@H](C)Oc1nn(-c2cc(F)ccc2F)c(-c2cncc(F)c2)c1C#N [VII-147] | 100 | 100 | 100 | 100 | 100 | 100 | 100 | 100 | 100 | 100 | 100 | 90 | 100 | 100 | – |
| CCOC(=O)COc1nn(-c2ccccc2F)c(-c2ccnc(F)c2)c1Br [VIII-003, Ethyl {[4-bromo-1-(2-fluorophenyl)-5-(2-fluoropyridin-4-yl)-1H-pyrazol-3-yl]oxy}acetate] | – | – | – | – | – | – | – | – | – | – | – | – | – | – | pest or weed control at 1280 g/ha (ECHCG; Echinochloa crus-galli, 504 h): 100%; pest or weed control at 1280 g/ha (POAAN [1]; Poa annua, 504 h): 100%; pest or weed control at 1280 g/ha (SETVI [2]; Setaria viridis, 504 h): 100%; pest or weed control at 1280 g/ha (AMARE [3]; Amaranthus retroflexus, 504 h): 100%; pest or weed control at 1280 g/ha (MATIN [4]; [9]): 100%; pest or weed control at 1280 g/ha (STEME; Stellaria media, 504 h): 100%; pest or weed control at 320 g/ha (ALOMY; Alopecurus myosuroides, 504 h): 100%; pest or weed control at 320 g/ha (AVEFA; Avena fatua, 504 h): 90%; pest or weed control at 320 g/ha (DIGSA; Digitaria sanguinalis, 504 h): 100%; pest or weed control at 320 g/ha (SETVI [5]; Setaria viridis, 504 h): 100%; pest or weed control at 320 g/ha (AMARE [6]; Amaranthus retroflexus, 504 h): 90%; pest or weed control at 320 g/ha (MATIN [7]; [9]): 90%; pest or weed control at 320 g/ha (POLCO; Fallopia convolvulus, 504 h): 100%; pest or weed control at 1280 g/ha (POAAN [8]; Poa annua, 504 h): 100% |
| COC(=O)[C@@H](C)Oc1nn(-c2ccccc2F)c(-c2ccnc(F)c2)c1Br [VIII-006] | 100 | 100 | 100 | 100 | 100 | 100 | 100 | 80 | 100 | 100 | 100 | 90 | 90 | 100 | – |
